For assay [1], the system named is purified T-cells. As to the kind of experiment: CD3ζ expression in stimulated purified T-cell cultures with H. pylori sonicate. In kind it is cell-based, human. The settings on record: sonicate 20 μg/ml, L-arginine 400 μM. As for the experimental part:
After isolating peripheral blood mononuclear cells by Ficoll-Paque Plus (Amersham Pharmacia Biotech; Piscataway, N.J.), T-cells were purified by negative selection by using an affinity column (R & D Systems; Minneapolis, Minn.). The purity was always >90% T-cells as measured by the expression of CD3ε. H. pylori extracts or live H. pylori have no effect on resting T-cells, therefore T-cells were stimulated by cross linking anti-CD3 plus anti-CD28 as follows: 24 well plates were coated with 0.3 ml of goat-anti mouse (GAM) (Kirkegaard & Perry Laboratories; Gaithersburg, Md.) at 10 μg/ml in HBSS for 1 h. After washing twice with Hank's balanced salt solution (HBSS), 0.5×10^6 of purified T-cells were added per well in 1 ml of RPMI without L-arginine containing 1 μg/ml of anti-human CD3 (Ortho Diagnostics, Raritan, N.J.) and 100 ng/ml of anti-human CD28 (Becton-Dickinson) and cultured for 24 h. After this time L-arginine was added to the wells to give a final concentration of 0.4 mM. H. pylori sonicate (20 μg/ml) from either the wild type strain ATCC 43504 or its rocF (−) isogenic mutant was also added to the wells. After 24 h under these conditions, the cells were recovered and stained for CD3ζ. Six different donors were tested. […]

The subject of assay [2] is purified T-cells. As to the kind of experiment: CD3ζ and phospho-CD3ζ expression in stimulated purified T-cells (flow cytometry). In kind it is cell-based, human. As for the experimental part:
Peripheral blood mononuclear cells (PBMC) from normal donors were separated over Ficoll-Paque (Pharmacia Biotech, Uppsala, Sweden). PBMC were enriched over T-cell enrichment columns (R&D Systems, Minneapolis, Minn.). After 10 min. of incubation, the columns were washed and the obtained enriched T-cells were counted and tested for surface markers by flow cytometry. […].
Tissue culture dishes (100 mm) (Corning, N.Y.) were coated overnight at 4° C. with PBS containing 10 μg/ml of anti-CD3 (OKT-3 Ortho Pharmaceutical, Raritan, N.J.) and washed once with cold phosphate buffer saline (PBS). Two million purified T-cells were resuspended in complete RPMI-1640 (RPMI) containing approximately 1140 μM of L-arginine (BioWhittaker, Walkersville, Md.) or in RPMI-1640 without L-arginine (Arg-free-RPMI) (GIBCO, Invitrogen, Grand Island, N.Y.) containing 100 ng/ml of anti-CD28 (Becton Dickinson, San Jose, Calif.) and added to plates. Control media included RPMI without L-glutamine or […]. Unstimulated T-cells were placed in the same culture conditions as controls. […]
To determine CD3ζ expression, purified T-cells were incubated for 15 min at 4° C. with anti-CD3-FITC or the isotype control (Beckman-Coulter, Miami, Fla.) at 1 μg of antibody/10^6 cells. […] Fluorescence analysis was done using a Coulter-EPICS flow cytometer (Beckman-Coulter, Miami, Fla.).
Background: In flow cytometry, cells or beads pass a laser one at a time.

Assay [3] relates to ASE I. As to the kind of experiment: Western blot for ASE I in PM cytoplasmic extracts. In kind it is cell-based, mice. The settings on record: NOHA 100 μM, Nor-NOHA 50 μM. The procedure:
Cytoplasmic extracts from PM, Jurkat cells or T lymphocytes were prepared as previously reported. Taheri, F., J. B. Ochoa, Z. Faghiri, K. Culotta, H. J. Park, M. S. Lan, A. H. Zea, and A. C. Ochoa. 2001. L-Arginine regulates the expression of the T-cell receptor zeta chain (CD3zeta) in Jurkat cells. Clin Cancer Res 7:958s-965s. Briefly, cells were resuspended in lysis buffer (50 mM HEPES, 150 mM NaCl, 5 mM EDTA, 1 mM NaOV4 and 0.5% Triton) containing 50 μg/ml of aprotinin, 50 μg/ml of leupeptin, 100 μg/ml of trypsin-chymotrypsin inhibitor and 2 mM PMSF. Lysates were centrifuged at 3000×g for 10 min at 4° C. Cytoplasmic extracts from Jurkat or T-cells were immunoblotted for CD3ζ and CD3ε. The expression ASE I, ASE II and iNOS was detected by immunoblot using PM extracts. GAPDH was used as housekeeping protein. Cytoplasmic extracts were electrophoresed in 12 or 8% Tris-Glycine gels (Novex, San Diego, Calif.), transferred to PVDF membranes and immunoblotted with the appropriate antibodies. The reactions were detected using the ECL kit (Amersham-Pharmacia).
(In western blotting, separated proteins are transferred to a membrane and probed.)

In assay [4] the test system is Jurkat cells. As to the kind of experiment: CD3ζ chain expression in Jurkat cells with H. pylori sonicate or proteins. It is filed as cell-based. As to conditions: NOHA 10 μg/ml; difference not statistically significant. The procedure:
Jurkat cells were cultured for 24 h in medium with the H. pylori sonicate at concentrations ranging from 1 μg/ml to 50 μg/ml. CagA (2 μg/ml) (Austral Biologicals; San Ramon, Calif.), VacA (4 μg/ml) (Austral), H. pylori urease A (2 μg/ml) (Austral), H. pylori urease B (2 μg/ml) (Austral) and E. coli LPS (500 ng/ml) (Sigma-Aldrich; St Louis, Mo.) were also used. Jurkat and T-cells were counted and stained with FITC-conjugated anti-human CD3 (Beckman-Coulter; Miami, Fla.) for 20 min in the dark. After washing with PBS the cells were stained for 8 min with phycoerythrin (PE)-conjugated anti-human CD3ζ (Beckman-Coulter; Miami, Fla.) in PBS containing 50 μg/ml of digitonin. The cells were washed twice in PBS and analyzed in an EPICS XL Coulter Flow Cytometer. The results compare the percentage of cells expressing CD3ζ as well as the mean fluorescence intensity.
[…] After addition of the sonicate plus NOHA or sonicate plus L-arginine mixture to the Jurkat cells, 1.0 μCi of ^3H-thymidine (NEN) was added per well, the cells were incubated at 37° C. for 18 h, harvested onto filters and counted in a β-counter (Packard).

In the case of `N=C(N)NCCC[C@H](N)C(=O)O` [L-arginine], the “CD3ζ expression in stimulated T-cells” value in assay [1] is on record as “recovered CD3ζ expression”. In addition, the “re-expression of CD3ζ after addition of L-arginine to the culture media” value in assay [2] (L-arginine 1140 μM, T-cells stimulated in Arg-free-RPMI) is given as “rapid re-expression of CD3ζ”. Besides, the “L-Arg concentrations that impair the re-expression of CD3ζ chain” value in assay [2] (stimulated T-cells, in vitro) was “below 40 μM”.

Turning to `NC(=NCCC[C@H](N)C(=O)O)NO` [NOHA, NG-hydroxy-L-arginine], the “ASE I up regulation after IL-4+IL-13 stimulation” value in assay [3] was “did not prevent ASE I up regulation”. Besides, in assay [4], the “CD3ζ chain expression in Jurkat cells treated with H. pylori sonicate” value is “partially inhibited the drop in CD3ζ chain expression”.

(Values after patent publication US20040057926A1, “Modulation of the immune response through the manipulation of arginine levels” (LSU Medical Center, priority 2002, published 2004).)
